Assay results published in article PMC10879502, “Linking ATP and allosteric sites to achieve superadditive binding with bivalent EGFR kinase inhibitors” (Communications Chemistry, 2024).
Where “and” joins values, the source holds several entries; their conditions need not be identical. Equal values may be shown once. Read-outs that look alike come from different tables or passages of the source.

Tests used:
[1] = molecular target: T1, EGFR L858R/T790M (LRTM) kinase domain (Homo sapiens, UniProt P00533, L858R/T790M); assay: HTRF KinEASE-TK kinase activity assay; type: biochemical; conditions: for Linking coefficient E: LRTM IC50, upper limit; for activity: LRTM, read-out: percent inhibition
T1 construct: The EGFR kinase domain (residues 696–1022) was cloned into pTriEx; 6xHis (N, cleaved yes); GST (N, cleaved yes); made in house; host or cells: SF9 insect cells, baculovirus

[2] = molecular target: T2, ABL1(Q252H)-phosphorylated (Homo sapiens, UniProt P00519, Q252H); assay: KINOMEscan; type: binding; conditions: 1 μM
T2 construct: purchased Eurofins DiscoverX Corporation

ADCK3 = ADCK3 (Homo sapiens, UniProt Q8NI60); assay: KINOMEscan; type: binding; conditions: 1 μM
ANKK1 = ANKK1 (Homo sapiens, UniProt Q8NFD2); assay: KINOMEscan; type: binding; conditions: 1 μM
BMX = molecular target: T3, BMX (Homo sapiens, UniProt P51813); assay: KINOMEscan; type: binding; conditions: 1 μM
T3 construct: purchased Eurofins DiscoverX Corporation (KINOMEscan)

BUB1 = molecular target: T4, BUB1 (Homo sapiens, UniProt O43683); assay: KINOMEscan; type: binding; conditions: 1 μM
T4 construct: purchased Eurofins DiscoverX Corporation (KINOMEscan)

CDKL2 = CDKL2 (Homo sapiens, UniProt Q92772); assay: KINOMEscan; type: binding; conditions: 1 μM
CDKL3 = CDKL3 (Homo sapiens, UniProt Q8IVW4); assay: KINOMEscan; type: binding; conditions: 1 μM
CHEK1 = CHEK1 (Homo sapiens, UniProt O14757); assay: KINOMEscan; type: binding; conditions: 1 μM
CSF1R-autoinhibited = CSF1R-autoinhibited (Homo sapiens, UniProt P07333); assay: KINOMEscan; type: binding; conditions: 1 μM
CSNK1G3 = molecular target: T5, CSNK1G3 (Homo sapiens, UniProt Q9Y6M4); assay: KINOMEscan; type: binding; conditions: 1 μM
T5 construct: purchased Eurofins DiscoverX Corporation

DMPK2 = molecular target: T6, DMPK2 (Homo sapiens, UniProt Q6DT37); assay: KINOMEscan; type: binding; conditions: 1 μM
T6 construct: purchased Eurofins DiscoverX Corporation

ERK1 = ERK1 (Homo sapiens, UniProt P27361); assay: KINOMEscan; type: binding; conditions: 1 μM
HIPK4 = molecular target: T7, HIPK4 (Homo sapiens, UniProt Q8NE63); assay: KINOMEscan; type: binding; conditions: 1 μM
T7 construct: purchased Eurofins DiscoverX Corporation

JNK1 = molecular target: T8, JNK1 (Homo sapiens, UniProt P45983); assay: KINOMEscan; type: binding; conditions: 1 μM
T8 construct: purchased Eurofins DiscoverX (KINOMEscan)

KIT-autoinhibited = molecular target: T9, KIT-autoinhibited (Homo sapiens, UniProt P10721); assay: KINOMEscan; type: binding; conditions: 1 μM
T9 construct: purchased Eurofins DiscoverX Corporation

LZK = molecular target: T10, LZK (Homo sapiens, UniProt O43283); assay: KINOMEscan; type: binding; conditions: 1 μM
T10 construct: purchased Eurofins DiscoverX Corporation

MAPKAPK5 = molecular target: T11, MAPKAPK5 (Homo sapiens, UniProt Q8IW41); assay: KINOMEscan; type: binding; conditions: 1 μM
T11 construct: purchased Eurofins DiscoverX Corporation

MEK3 = molecular target: T12, MEK3 (Homo sapiens, UniProt P46734); assay: KINOMEscan; type: binding; conditions: 1 μM
T12 construct: purchased Eurofins DiscoverX Corporation

MELK = molecular target: T13, MELK (Homo sapiens, UniProt Q14680); assay: KINOMEscan; type: binding; conditions: 1 μM
T13 construct: purchased Eurofins DiscoverX Corporation

MYLK = molecular target: T14, MYLK (Homo sapiens, UniProt Q15746); assay: KINOMEscan; type: binding; conditions: 1 μM
T14 construct: purchased Eurofins DiscoverX Corporation

PIK3CA(C420R) = PIK3CA(C420R) (Homo sapiens, UniProt P42336, C420R); assay: KINOMEscan; type: binding; conditions: 1 μM
PIK3CA(H1047Y) = PIK3CA(H1047Y) (Homo sapiens, UniProt P42336, H1047Y); assay: KINOMEscan; type: binding; conditions: 1 μM
PIK3CB = PIK3CB (Homo sapiens, UniProt P42338); assay: KINOMEscan; type: binding; conditions: 1 μM
PIP5K1C = PIP5K1C (Homo sapiens, UniProt O60331); assay: KINOMEscan; type: binding; conditions: 1 μM
PLK2 = PLK2 (Homo sapiens, UniProt Q9NYY3); assay: KINOMEscan; type: binding; conditions: 1 μM
PRKCQ = PRKCQ (Homo sapiens, UniProt Q04759); assay: KINOMEscan; type: binding; conditions: 1 μM
PRKG1 = PRKG1 (Homo sapiens, UniProt Q13976); assay: KINOMEscan; type: binding; conditions: 1 μM
PRKG2 = PRKG2 (Homo sapiens, UniProt Q13237); assay: KINOMEscan; type: binding; conditions: 1 μM
QSK = QSK (Homo sapiens, UniProt Q9Y2K2); assay: KINOMEscan; type: binding; conditions: 1 μM
RET(V804L) = RET(V804L) (Homo sapiens, UniProt P07949, V804L); assay: KINOMEscan; type: binding; conditions: 1 μM
[3] = molecular target: RSK3(Kin.Dom.1-N-terminal) (Homo sapiens, UniProt Q15349); assay: KINOMEscan; type: binding; conditions: 1 μM
SgK110 = SgK110 (Homo sapiens, UniProt P0C264); assay: KINOMEscan; type: binding; conditions: 1 μM
SNRK = SNRK (Homo sapiens, UniProt Q9NRH2); assay: KINOMEscan; type: binding; conditions: 1 μM
STK33 = STK33 (Homo sapiens, UniProt Q9BYT3); assay: KINOMEscan; type: binding; conditions: 1 μM
TAOK2 = molecular target: T15, TAOK2 (Homo sapiens, UniProt Q9UL54); assay: KINOMEscan; type: binding; conditions: 1 μM
T15 construct: purchased Eurofins DiscoverX Corporation

TGFBR1 = molecular target: T16, TGFBR1 (Homo sapiens, UniProt P36897); assay: KINOMEscan; type: binding; conditions: 1 μM
T16 construct: purchased Eurofins DiscoverX Corporation

YSK1 = YSK1 (Homo sapiens, UniProt O00506); assay: KINOMEscan; type: binding; conditions: 1 μM

Sequence of PIK3CA(C420R) (P42336 whole entry C420R): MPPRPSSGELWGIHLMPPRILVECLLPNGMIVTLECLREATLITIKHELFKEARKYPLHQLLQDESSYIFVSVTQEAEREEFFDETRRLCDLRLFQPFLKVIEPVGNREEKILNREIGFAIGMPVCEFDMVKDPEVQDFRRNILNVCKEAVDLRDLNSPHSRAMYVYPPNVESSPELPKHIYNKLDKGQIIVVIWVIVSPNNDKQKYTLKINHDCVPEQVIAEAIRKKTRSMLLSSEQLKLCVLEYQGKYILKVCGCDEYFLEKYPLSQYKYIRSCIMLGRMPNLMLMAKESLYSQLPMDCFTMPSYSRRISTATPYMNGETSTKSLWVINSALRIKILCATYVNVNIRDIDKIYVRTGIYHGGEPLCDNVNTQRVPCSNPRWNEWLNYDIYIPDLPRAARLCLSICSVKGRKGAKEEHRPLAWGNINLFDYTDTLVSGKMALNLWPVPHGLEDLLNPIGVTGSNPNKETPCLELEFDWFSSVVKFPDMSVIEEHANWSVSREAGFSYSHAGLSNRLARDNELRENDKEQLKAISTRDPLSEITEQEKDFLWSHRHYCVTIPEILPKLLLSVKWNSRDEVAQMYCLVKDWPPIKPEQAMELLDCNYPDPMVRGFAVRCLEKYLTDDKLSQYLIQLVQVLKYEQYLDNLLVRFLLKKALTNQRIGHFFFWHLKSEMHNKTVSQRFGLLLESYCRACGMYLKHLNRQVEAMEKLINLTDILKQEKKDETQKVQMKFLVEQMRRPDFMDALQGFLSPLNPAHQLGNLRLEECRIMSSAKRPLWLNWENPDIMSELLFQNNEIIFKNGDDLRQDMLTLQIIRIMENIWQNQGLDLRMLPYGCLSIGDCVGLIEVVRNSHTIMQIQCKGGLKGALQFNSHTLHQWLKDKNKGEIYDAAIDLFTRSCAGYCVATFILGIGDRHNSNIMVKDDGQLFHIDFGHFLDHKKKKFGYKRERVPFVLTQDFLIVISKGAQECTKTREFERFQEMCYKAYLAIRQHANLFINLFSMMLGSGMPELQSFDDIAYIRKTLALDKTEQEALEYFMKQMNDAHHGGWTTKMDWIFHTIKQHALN
Sequence of SNRK (Q9NRH2 whole entry): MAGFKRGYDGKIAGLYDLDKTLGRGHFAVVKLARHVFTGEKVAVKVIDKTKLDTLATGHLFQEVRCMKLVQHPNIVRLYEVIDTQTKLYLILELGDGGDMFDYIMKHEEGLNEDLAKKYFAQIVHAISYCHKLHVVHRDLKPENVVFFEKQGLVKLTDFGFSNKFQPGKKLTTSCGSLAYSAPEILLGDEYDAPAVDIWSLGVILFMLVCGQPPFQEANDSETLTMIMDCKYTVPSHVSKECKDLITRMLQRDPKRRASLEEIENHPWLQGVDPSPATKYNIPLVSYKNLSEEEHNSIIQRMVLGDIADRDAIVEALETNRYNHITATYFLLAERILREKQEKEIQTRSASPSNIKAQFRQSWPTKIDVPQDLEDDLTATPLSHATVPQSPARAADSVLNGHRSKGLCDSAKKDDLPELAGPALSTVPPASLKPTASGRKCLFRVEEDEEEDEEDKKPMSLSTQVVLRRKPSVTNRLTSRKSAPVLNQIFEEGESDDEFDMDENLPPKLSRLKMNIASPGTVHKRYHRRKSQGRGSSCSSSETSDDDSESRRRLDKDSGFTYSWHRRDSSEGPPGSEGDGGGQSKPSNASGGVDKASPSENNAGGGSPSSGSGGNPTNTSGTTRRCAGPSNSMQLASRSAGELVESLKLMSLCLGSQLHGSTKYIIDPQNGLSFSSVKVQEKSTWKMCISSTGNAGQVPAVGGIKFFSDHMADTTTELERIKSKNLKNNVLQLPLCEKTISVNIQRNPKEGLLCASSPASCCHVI
Sequence of ERK1 (P27361 whole entry): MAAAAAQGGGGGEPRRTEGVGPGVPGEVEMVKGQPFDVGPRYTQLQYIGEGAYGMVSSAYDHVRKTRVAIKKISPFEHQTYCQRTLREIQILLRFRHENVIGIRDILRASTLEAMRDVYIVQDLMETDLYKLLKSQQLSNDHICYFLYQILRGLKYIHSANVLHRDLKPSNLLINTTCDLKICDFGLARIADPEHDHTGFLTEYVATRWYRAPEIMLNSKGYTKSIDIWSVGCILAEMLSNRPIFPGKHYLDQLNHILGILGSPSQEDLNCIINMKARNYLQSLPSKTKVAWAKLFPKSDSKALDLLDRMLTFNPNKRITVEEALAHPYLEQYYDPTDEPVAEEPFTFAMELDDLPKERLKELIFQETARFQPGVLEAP
Sequence of SgK110 (P0C264 whole entry): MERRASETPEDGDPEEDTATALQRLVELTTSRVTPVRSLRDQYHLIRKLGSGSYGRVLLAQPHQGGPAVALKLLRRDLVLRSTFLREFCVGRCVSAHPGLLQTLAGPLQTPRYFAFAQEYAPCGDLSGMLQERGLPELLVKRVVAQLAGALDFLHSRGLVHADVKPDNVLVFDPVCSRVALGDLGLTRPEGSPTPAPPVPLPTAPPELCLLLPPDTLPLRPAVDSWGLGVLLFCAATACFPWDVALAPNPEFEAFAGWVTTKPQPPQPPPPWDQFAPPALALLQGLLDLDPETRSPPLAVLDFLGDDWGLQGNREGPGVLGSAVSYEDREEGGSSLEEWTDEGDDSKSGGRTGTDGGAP
Sequence of ADCK3 (Q8NI60 163-647): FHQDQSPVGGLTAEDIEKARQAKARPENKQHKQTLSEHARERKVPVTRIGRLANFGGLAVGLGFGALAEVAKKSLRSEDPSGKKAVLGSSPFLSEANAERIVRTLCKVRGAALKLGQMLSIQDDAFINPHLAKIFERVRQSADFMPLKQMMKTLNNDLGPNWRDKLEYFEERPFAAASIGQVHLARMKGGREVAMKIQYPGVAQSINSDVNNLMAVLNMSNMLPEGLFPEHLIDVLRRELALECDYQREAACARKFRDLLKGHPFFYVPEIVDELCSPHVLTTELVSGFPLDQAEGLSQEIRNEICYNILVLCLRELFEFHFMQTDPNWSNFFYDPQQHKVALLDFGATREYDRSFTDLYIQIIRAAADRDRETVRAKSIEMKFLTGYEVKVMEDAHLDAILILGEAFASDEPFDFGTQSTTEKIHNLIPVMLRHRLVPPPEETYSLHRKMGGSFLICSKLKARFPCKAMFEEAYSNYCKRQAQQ
T5 sequence (Q9Y6M4 whole entry): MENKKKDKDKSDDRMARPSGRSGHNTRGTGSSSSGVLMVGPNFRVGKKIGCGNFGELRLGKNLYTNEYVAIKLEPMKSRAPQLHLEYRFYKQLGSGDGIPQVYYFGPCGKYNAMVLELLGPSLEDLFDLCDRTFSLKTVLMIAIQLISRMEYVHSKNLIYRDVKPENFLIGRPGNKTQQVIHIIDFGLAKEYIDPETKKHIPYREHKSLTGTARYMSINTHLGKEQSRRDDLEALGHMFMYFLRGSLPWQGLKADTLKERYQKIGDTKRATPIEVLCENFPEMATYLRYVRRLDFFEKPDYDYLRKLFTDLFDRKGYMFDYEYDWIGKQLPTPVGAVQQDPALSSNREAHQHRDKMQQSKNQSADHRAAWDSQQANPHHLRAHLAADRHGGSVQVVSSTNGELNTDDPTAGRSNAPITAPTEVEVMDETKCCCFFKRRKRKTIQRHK
T13 sequence (Q14680 whole entry): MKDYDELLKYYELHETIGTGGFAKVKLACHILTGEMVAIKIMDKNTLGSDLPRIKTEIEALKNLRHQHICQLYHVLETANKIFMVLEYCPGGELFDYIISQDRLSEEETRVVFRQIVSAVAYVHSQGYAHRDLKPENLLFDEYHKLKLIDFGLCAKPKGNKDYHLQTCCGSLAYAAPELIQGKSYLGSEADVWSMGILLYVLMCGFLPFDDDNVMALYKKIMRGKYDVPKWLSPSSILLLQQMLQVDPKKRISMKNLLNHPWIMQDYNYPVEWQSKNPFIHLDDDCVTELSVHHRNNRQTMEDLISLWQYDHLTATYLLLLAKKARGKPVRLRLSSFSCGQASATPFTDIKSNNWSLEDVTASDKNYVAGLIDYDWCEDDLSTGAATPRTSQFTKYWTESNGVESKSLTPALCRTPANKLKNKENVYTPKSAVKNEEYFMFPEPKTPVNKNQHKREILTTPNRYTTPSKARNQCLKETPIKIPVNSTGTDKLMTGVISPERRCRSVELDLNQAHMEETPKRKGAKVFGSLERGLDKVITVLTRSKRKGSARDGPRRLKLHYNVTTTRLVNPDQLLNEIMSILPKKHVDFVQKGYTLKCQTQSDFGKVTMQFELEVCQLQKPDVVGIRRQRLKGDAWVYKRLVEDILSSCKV
T9 sequence (P10721 544-976 limits assumed): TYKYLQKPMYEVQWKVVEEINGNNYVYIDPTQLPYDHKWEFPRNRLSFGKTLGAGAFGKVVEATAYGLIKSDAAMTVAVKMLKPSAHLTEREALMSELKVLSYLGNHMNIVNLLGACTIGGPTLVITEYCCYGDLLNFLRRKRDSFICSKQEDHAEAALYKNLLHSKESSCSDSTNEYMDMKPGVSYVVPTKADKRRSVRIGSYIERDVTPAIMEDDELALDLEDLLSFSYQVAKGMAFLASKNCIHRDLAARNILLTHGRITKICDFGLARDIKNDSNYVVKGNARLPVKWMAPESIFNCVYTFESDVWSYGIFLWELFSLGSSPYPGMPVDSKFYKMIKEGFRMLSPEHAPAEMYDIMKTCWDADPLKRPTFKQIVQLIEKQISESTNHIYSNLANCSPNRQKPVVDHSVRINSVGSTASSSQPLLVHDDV
Sequence of CSF1R-autoinhibited (P07333 539-972 limits assumed): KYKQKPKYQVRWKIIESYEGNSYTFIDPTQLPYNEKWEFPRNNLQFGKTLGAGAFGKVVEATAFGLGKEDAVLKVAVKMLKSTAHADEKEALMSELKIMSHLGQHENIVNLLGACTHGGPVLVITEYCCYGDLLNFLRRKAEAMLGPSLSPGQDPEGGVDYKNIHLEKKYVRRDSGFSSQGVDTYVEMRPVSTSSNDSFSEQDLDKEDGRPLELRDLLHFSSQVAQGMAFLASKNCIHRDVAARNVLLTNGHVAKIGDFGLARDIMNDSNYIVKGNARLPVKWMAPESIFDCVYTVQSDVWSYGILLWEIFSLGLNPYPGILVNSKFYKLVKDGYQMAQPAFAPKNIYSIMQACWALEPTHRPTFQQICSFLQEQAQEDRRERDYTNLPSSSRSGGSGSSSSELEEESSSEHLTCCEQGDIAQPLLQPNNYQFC

## CSc1nc(-c2cccc(NC(=O)c3cccc4c3NC(=O)c3ccccc3N4)c2)c(-c2ccnc(NC(C)=O)c2)[nH]1 [Compound 2]
[1]; ATP fragment 5, allosteric fragment 10
  Linking coefficient E: < 1.0 M⁻¹
[1]; ATP fragment 6, allosteric fragment 10
  Linking coefficient E: < 0. 59 M-1
[1]; [Inhibitor] 1.3e-5 nM
  activity: 83.4% and 90.2% and 86.8%
[1]; [Inhibitor] 3.18e-5 nM
  activity: 73.8% and 73.1% and 84.5%
[1]; [Inhibitor] 7.78e-5 nM
  activity: 40.1% and 41.4% and 42.9%
[1]; [Inhibitor] 0.000190441 nM, 190.4 fM
  activity: 19.1% and 19.2%
[1]; [Inhibitor] 0.000465979 nM, 466 fM
  activity: 8.04% and 10%
[1]; [Inhibitor] 0.00114018 nM, 1.14 pM
  activity: 5.9% and 5.75%
[1]; [Inhibitor] 0.00278983 nM, 2.79 pM
  activity: 3.92% and 5.27%
[1]; [Inhibitor] 0.00682626 nM, 6.826 pM
  activity: 3.83% and 4.05%
[1]; [Inhibitor] 0.0167028 nM, 16.7 pM
  activity: 2.18% and 2.36%
[1]; Table S1, read-out: IC50, LRTM
  IC50: 0.051 to 0.064 nM and 0.051 to 0.059 nM
[1]; enzyme 0.02 nM, ATP 100 µM, read-out: Biochemical EGFR IC50, LRTM
  IC50: 0.059 ± 0.005 nM
[1]; limits estimated from LRTM IC50 values
  linking coefficients: 0.5 to 1.0 M⁻¹

## C=CC(=O)Nc1ccc(OC)c(Nc2cc(-c3[nH]c(CC)nc3-c3cccc(NC(=O)c4cccc5c4NC(=O)c4ccccc4N5)c3)ccn2)c1 [Compound 4]
[2]
  POC: 90% of control
ADCK3
  POC: 100% of control
ANKK1
  POC: 87% of control
BMX
  POC: 66% of control
BUB1
  POC: 100% of control
CDKL2
  POC: 100% of control
CDKL3
  POC: 100% of control
CHEK1
  POC: 100% of control
CSF1R-autoinhibited
  POC: 69% of control
CSNK1G3
  POC: 98% of control
DMPK2
  POC: 0% of control
ERK1
  POC: 99% of control
HIPK4
  POC: 92% of control
JNK1
  POC: 85% of control
KIT-autoinhibited
  POC: 100% of control
LZK
  POC: 90% of control
MAPKAPK5
  POC: 100% of control
MEK3
  POC: 100% of control
MELK
  POC: 100% of control
MYLK
  POC: 84% of control
PIK3CA(C420R)
  POC: 66% of control
PIK3CA(H1047Y)
  POC: 66% of control
PIK3CB
  POC: 90% of control
PIP5K1C
  POC: 78% of control
PLK2
  POC: 100% of control
PRKCQ
  POC: 18% of control
PRKG1
  POC: 100% of control
PRKG2
  POC: 62% of control
QSK
  POC: 100% of control
RET(V804L)
  POC: 99% of control
[3]
  POC: 97% of control
SgK110
  POC: 100% of control
SNRK
  POC: 82% of control
STK33
  POC: 100% of control
TAOK2
  POC: 100% of control
TGFBR1
  POC: 75% of control
YSK1
  POC: 76% of control
